Patent US6090839A, “Antidiabetic agents” (Merck & Co., Inc., priority 1997, dated 2000)

Key:
human PPARδ = target: T1, human PPARδ (Homo sapiens, UniProt Q03181); experiment: PPAR Receptor Binding Assay: [3H2]Example 11 Displacement Assay for PPARδ; conditions: [3H2]Example 11, gst-PPARδ, ~16 h at 4° C., pH 7.2
T1 construct: The full length human cDNA for PPARγ2 and PPARδ were subcloned; made in house; host or cells: E. coli
T1 sequence (Q03181 1-441): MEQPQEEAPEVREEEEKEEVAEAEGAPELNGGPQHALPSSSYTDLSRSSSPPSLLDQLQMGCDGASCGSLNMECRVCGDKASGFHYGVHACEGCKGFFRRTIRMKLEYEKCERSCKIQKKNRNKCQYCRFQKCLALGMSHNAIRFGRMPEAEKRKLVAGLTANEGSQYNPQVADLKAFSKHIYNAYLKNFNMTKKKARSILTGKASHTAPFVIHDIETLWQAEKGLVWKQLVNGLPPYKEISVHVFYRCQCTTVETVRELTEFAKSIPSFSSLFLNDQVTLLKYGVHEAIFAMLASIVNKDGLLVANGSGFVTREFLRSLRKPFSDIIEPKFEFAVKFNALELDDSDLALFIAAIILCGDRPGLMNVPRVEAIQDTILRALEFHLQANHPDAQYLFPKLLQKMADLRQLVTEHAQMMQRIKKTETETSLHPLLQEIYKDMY
Source text: (§1) Compounds of the instant invention which are useful for the above discussed treatments can be identified and/or characterized by employing the PPARδ, and γ binding assays. The assays are useful in predicting or quantitating in vivo effects having to do with the control or modulation of glucose, free fatty acid, triglyceride, insulin or cholesterol. To evaluate IC50 or EC50, values the compounds were titrated in the appropriate assay using different concentrations of the compound to be tested. To obtain the appropriate values (%Inhibition-IC50, or %Activation-EC50), the data resulting from the assays were then analyzed by determining the best fit of a 4 parameter function to the data using the Levenberg-Marquardt non-linear fitting algorithm in Kaleidagraph (Synergy Software, Reading, Pa). The human nuclear receptor cDNA for PPARδ (hPPARδ) has been cloned from a human osteosarcoma cell cDNA library and is fully described in A. Schmidt et al., Molecular Endocrinology, 6:1634-1641 (1992), herein incorporated by reference in its entirety. See A. Elbrecht et al., Biochem. and Biophy. Res. Comm. 224:431-437 (1996) and T. Sher et al., Biochem. 32:5598-5604 (1993) for a description of the human nuclear receptor gene PPARγ, and α.
The hPPARδ binding assay comprises the steps of: […]

human PPARγ2 = target: T2, human PPARγ2 (Homo sapiens, UniProt P37231); experiment: PPAR Receptor Binding Assay: [3H]AD-5075 Displacement Assay for PPARγ2; conditions: [3H2]AD-5075, gst-PPARγ2, ~16 h at 4° C., pH 7.2
T2 construct: The full length human cDNA for PPARγ2 and PPARδ were subcloned; made in house; host or cells: E. coli
T2 sequence (P37231 1-505): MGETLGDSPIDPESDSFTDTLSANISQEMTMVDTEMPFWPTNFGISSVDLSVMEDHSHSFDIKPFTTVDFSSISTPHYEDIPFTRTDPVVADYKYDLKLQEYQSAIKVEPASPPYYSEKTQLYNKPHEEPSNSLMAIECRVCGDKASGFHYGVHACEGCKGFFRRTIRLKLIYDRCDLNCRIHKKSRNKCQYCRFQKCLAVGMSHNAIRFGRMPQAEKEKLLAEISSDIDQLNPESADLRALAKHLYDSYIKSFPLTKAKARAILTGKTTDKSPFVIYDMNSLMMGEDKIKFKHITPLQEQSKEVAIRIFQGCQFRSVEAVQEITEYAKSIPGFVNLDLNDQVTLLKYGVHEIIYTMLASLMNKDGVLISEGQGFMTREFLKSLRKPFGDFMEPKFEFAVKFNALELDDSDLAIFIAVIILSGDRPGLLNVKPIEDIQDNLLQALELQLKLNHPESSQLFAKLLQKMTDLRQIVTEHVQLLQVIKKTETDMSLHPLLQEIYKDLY
Source text: as §1
Human PPARγ2 and PPARδ, independently, were prepared as gst-fusion proteins in E. coli. […]

Row | Kd (human PPARδ) [nM] | Kd (human PPARγ2) [nM] | Structure (SMILES)
1 | ~1 |  | CCCc1c(OCCc2cc3c4c(ccc3o2)C(C(=O)O)CCC4)ccc2c(-c3ccccc3)noc12 (centres unmarked) [Example 11, 2-(2-(3-phenyl-7-propylbenz[4,5]isoxazol-6-yloxy)ethyl)-4,5,6,7-tetrahydronaphtho[2,1-b]furan-7-carboxylic acid]
2 |  | ~1 | Cc1oc(-c2ccccc2)nc1C(O)COc1ccc(CC2SC(=O)NC2=O)cc1 (centres unmarked) [AD-5075]
